Data taken from patent publication US20200064333A1, “ECM COMPOSITION, TUMOR MICROENVIRONMENT PLATFORM AND METHODS THEREOF” (MITRA RXDX INDIA PRIVATE LIMITED, priority 2011, published 2020).

How the values were obtained:
[1] = test system: Pancreatic Cancer patient tumor tissue; assay: "Clinical Response Predictor" explant analysis (M-score), Pancreatic cancer; assay type: cell-based, human
Excerpt: (§1) “Clinical Response Predictor” is a patient segregation tool for matching drugs to patients and patients to the drugs in Oncology. “Clinical Response Predictor” explant model is a personalized functional assay that helps predict the response of the patient under investigation to a set of approved drugs for his/her type of cancer. This is done using fresh patient tumor tissue from solid cancers in a specially coated 96/384 well plate. The plates are coated with specific set of Extra Cellular Matix. Further, patient derived autologous ligands are added to the culture. Angiogenic factors are added to maintain tumor vasculature. In case of immunomodulator drugs, autologus immune cells are added to the culture. […] “Clinical Response Predictor” results are measured by both kinetic as well as end-point assays. Cell Viability, Cell death, Cell proliferation, cell metabolism, senescence, tumor morphology are some of the parameters assessed. Each of these parameters is measured by more than one assay. For e.g.: Cell Viability is measured by WST, ATP uptake and Glucose uptake assays. Cell Proliferation and Metabolism is measured by Ki67, PCNA (proliferating nuclear cell antigen), ATP/ADP ratio and Glucose uptake. Cell death is assessed by LDH, Activated Caspase 3, Activated Caspase 8 & Nitric Oxide Synthase and TUNEL. […]

[2] = test system: Breast Cancer patient tumor tissue; assay: "Clinical Response Predictor" explant analysis (M-score), Breast cancer; assay type: cell-based, human; parameters: key: 0-100 composite M-score from proprietary algorithm
Excerpt: “Clinical Response Predictor” is a patient segregation tool for matching drugs to patients and patients to the drugs in Oncology. “Clinical Response Predictor” explant model is a personalized functional assay that helps predict the response of the patient under investigation to a set of approved drugs for his/her type of cancer. This is done using fresh patient tumor tissue from solid cancers in a specially coated 96/384 well plate. The plates are coated with specific set of Extra Cellular Matix. Further, patient derived autologous ligands are added to the culture. Angiogenic factors are added to maintain tumor vasculature. In case of immunomodulator drugs, autologus immune cells are added to the culture. In the case of haematological malignancies, patient plasma is cultured in the 96/384 well format. The test is carried out in multiplicates to take into account the heterogeneous nature of cancer. “Clinical Response Predictor” results are measured by both kinetic as well as end-point assays. Cell Viability, Cell death, Cell proliferation, cell metabolism, senescence, tumor morphology are some of the parameters assessed. Each of these parameters is measured by more than one assay. For e.g.: Cell Viability is measured by WST, ATP uptake and Glucose uptake assays. Cell Proliferation and Metabolism is measured by Ki67, PCNA (proliferating nuclear cell antigen), ATP/ADP ratio and Glucose uptake. Cell death is assessed by LDH, Activated Caspase 3, Activated Caspase 8 & Nitric Oxide Synthase and TUNEL. Tumor morphology is assessed by H&E to look at the tumor cell content, size of the tumor cells, ratio of viable cells/dead cells, ratio of tumor cells/normal cells, and tumor/macrophage ratio, nuclear size and density and integrity, apoptotic bodies and mitotic figures. Results from each of the assays are expressed in numeric form and is converted using a proprietary algorithm into a single 0-100 metric called “M-score”.
Alternatively, when the tumor source is a xenograft, tumor from mice is excised and further subjected to explant analysis as described below. In another embodiment, the tumor is obtained and is implanted into the mice, thereafter it is allowed to grow, then excised and then subjected to the instant “Clinical Response Predictor” analysis. Post obtaining the, tissue sample, it is divided for obtaining various inputs from a) explant assay, b) Histology based assays like IHC (immunohistochemistry)/H&E, and c) efficacy analysis from primary tumor derived xenografts. • A) Tissue sample given for explant analysis is sliced using Leica Vibratome to generate sections of about 100-3000 μm thickness. These sections are cultured in plates coated with the cancer type specific ECM composition in quadruplicate with media containing autologous sera and also various drugs optionally, for a period of about 48-96 hours. Media with drug and enriched with serum/plasma/PBMCs/serum derived ligands is changed every 24 hours. Post this period MTT/WST analysis is done to assess percent cell viability (end point assay). The supernatant from the media culture is removed every 24 hrs and assessed for proliferation (using ATP and glucose utilization experiments) and cell death (by assessment of lactate dehydrogenase assays and caspase-3 and caspase 8 measurements) to give kinetic response trends. Results are quantified against a drug untreated control. […] The tissue sections both treated and untreated are also given for histological evaluation at the end of the culture period. • B) The tissues given for histological evaluation are assessed for apoptosis by TUNEL and activated caspase 3 assay. Also cell proliferation is assayed for standard proliferation markers like Ki67.

[3] = test system: Head and Neck Cancer patient tumor tissue; assay: "Clinical Response Predictor" explant analysis (M-score / Sensitivity Index), Head and Neck cancer; assay type: cell-based, human; conditions: Right pyriform sinus
Excerpt: as §1

[4] = test system: Ovary Cancer patient tumor tissue; assay: "Clinical Response Predictor" explant analysis (M-score), Ovary cancer; assay type: cell-based, human
Excerpt: as §1

[5] = test system: Glioblastoma, Ca-Ovary, Ca-Breast, Ca-Oesophagus, Ca-Pancreas, Ca-Stomach; assay: Clinical outcome of patients (PETCT or CT), other solid cancers; assay type: in vivo, human; conditions: evaluated at the end of 6-8 months by PETCT or CT
Description: The figure details that the tumor tissue from the patient is analyzed using explant read out, primary Human tumor xenograft readout and then subjected to a variety of genomic and proteomic profiling accompanied by histological analysis and final correlation with patient clinical data for the chemotherapy regimen. All these input parameters together generate the “Clinical Response Predictor”. The integrated preclinical prediction model is designed based on functional “Clinical Response Predictor” screening platform and M Score prompted by it. Tumor tissues are collected from clinics prior to initiation of treatment. Clinical outcome (PERCIST/RECIST) data are collected before and after completion of 3 cycles of chemotherapy (top of the FIG. 1). Concomitantly, after resection/biopsy tumors are treated with same Standards of Care [SOC] or targeted drugs as that received by patients using an “Clinical Response Predictor” driven explants platform. This leads to the extensive functional and molecular characterization (middle of the FIG. 1). […] The combined data from this platform is integrated for determining the M-score and thereafter correlated with PERCIST/RECIST obtained from patient after 3rd to 6th cycle of therapy.
The “Clinical Response Predictor” outcome (M-score) is then compared with clinical outcome.

[6] = test system: Glioblastoma patient tumor tissue; assay: "Clinical Response Predictor" explant analysis (M-score), Glioblastoma; assay type: cell-based, human; conditions: Glioblastoma patient tumor sample, Table 3
Excerpt: as §1

[7] = test system: Colon Cancer patient tumor tissue; assay: "Clinical Response Predictor" explant analysis (M-score), Colon / Colorectum cancer; assay type: cell-based, human
Excerpt: “Clinical Response Predictor” is a patient segregation tool for matching drugs to patients and patients to the drugs in Oncology. “Clinical Response Predictor” explant model is a personalized functional assay that helps predict the response of the patient under investigation to a set of approved drugs for his/her type of cancer. This is done using fresh patient tumor tissue from solid cancers in a specially coated 96/384 well plate. The plates are coated with specific set of Extra Cellular Matix. Further, patient derived autologous ligands are added to the culture. Angiogenic factors are added to maintain tumor vasculature. In case of immunomodulator drugs, autologus immune cells are added to the culture. In the case of haematological malignancies, patient plasma is cultured in the 96/384 well format. The test is carried out in multiplicates to take into account the heterogeneous nature of cancer. “Clinical Response Predictor” results are measured by both kinetic as well as end-point assays. Cell Viability, Cell death, Cell proliferation, cell metabolism, senescence, tumor morphology are some of the parameters assessed. Each of these parameters is measured by more than one assay. For e.g.: Cell Viability is measured by WST, ATP uptake and Glucose uptake assays. Cell Proliferation and Metabolism is measured by Ki67, PCNA (proliferating nuclear cell antigen), ATP/ADP ratio and Glucose uptake. Cell death is assessed by LDH, Activated Caspase 3, Activated Caspase 8 & Nitric Oxide Synthase and TUNEL. Tumor morphology is assessed by H&E to look at the tumor cell content, size of the tumor cells, ratio of viable cells/dead cells, ratio of tumor cells/normal cells, and tumor/macrophage ratio, nuclear size and density and integrity, apoptotic bodies and mitotic figures. […]
Alternatively, when the tumor source is a xenograft, tumor from mice is excised and further subjected to explant analysis as described below. […] Results are quantified against a drug untreated control. […]

[8] = test system: Stomach Cancer patient tumor tissue; assay: "Clinical Response Predictor" explant analysis (M-score), Stomach cancer; assay type: cell-based, human
Excerpt: as §1

[9] = test system: Liver Cancer patient tumor tissue; assay: "Clinical Response Predictor" explant analysis (M-score), Liver cancer; assay type: cell-based, human; conditions: for M-Score: liver
Excerpt: “Clinical Response Predictor” is a patient segregation tool for matching drugs to patients and patients to the drugs in Oncology. “Clinical Response Predictor” explant model is a personalized functional assay that helps predict the response of the patient under investigation to a set of approved drugs for his/her type of cancer. This is done using fresh patient tumor tissue from solid cancers in a specially coated 96/384 well plate. The plates are coated with specific set of Extra Cellular Matix. Further, patient derived autologous ligands are added to the culture. Angiogenic factors are added to maintain tumor vasculature. In case of immunomodulator drugs, autologus immune cells are added to the culture. In the case of haematological malignancies, patient plasma is cultured in the 96/384 well format. The test is carried out in multiplicates to take into account the heterogeneous nature of cancer. “Clinical Response Predictor” results are measured by both kinetic as well as end-point assays. Cell Viability, Cell death, Cell proliferation, cell metabolism, senescence, tumor morphology are some of the parameters assessed. Each of these parameters is measured by more than one assay. For e.g.: Cell Viability is measured by WST, ATP uptake and Glucose uptake assays. Cell Proliferation and Metabolism is measured by Ki67, PCNA (proliferating nuclear cell antigen), ATP/ADP ratio and Glucose uptake. Cell death is assessed by LDH, Activated Caspase 3, Activated Caspase 8 & Nitric Oxide Synthase and TUNEL. Tumor morphology is assessed by H&E to look at the tumor cell content, size of the tumor cells, ratio of viable cells/dead cells, ratio of tumor cells/normal cells, and tumor/macrophage ratio, nuclear size and density and integrity, apoptotic bodies and mitotic figures. Results from each of the assays are expressed in numeric form and is converted using a proprietary algorithm into a single 0-100 metric called “M-score”. […]
Alternatively, when the tumor source is a xenograft, tumor from mice is excised and further subjected to explant analysis as described below. […] The supernatant from the media culture is removed every 24 hrs and assessed for proliferation (using ATP and glucose utilization experiments) and cell death (by assessment of lactate dehydrogenase assays and caspase-3 and caspase 8 measurements) to give kinetic response trends. Results are quantified against a drug untreated control. […] The tissue sections both treated and untreated are also given for histological evaluation at the end of the culture period. • B) The tissues given for histological evaluation are assessed for apoptosis by TUNEL and activated caspase 3 assay. […]

[10] = Example 13.11: patient, Breast Cancer, Regional Lymph node (R) Breast, T3N1M0, metastasis and recc
[11] = Example 13.14: patient, T4N0M0, primary

Compound `C#Cc1cccc(Nc2ncnc3cc(OCCOC)c(OCCOC)cc23)c1` [Erlotinib] has a M-Score ([1]; Example 13.7: patient, tumor site liver, metastasis) of 21 and a M-Score ([1]; Example 13.8: patient, pancreas, T2N0M0, primary) of 14.

In the case of `CC(C)(C#N)c1cc(Cn2cncn2)cc(C(C)(C)C#N)c1` [Anastrozole], the M-Score [2, 10] is reported as 20.

Compound `N.N.[Cl][Pt][Cl]` [Cisplatin] has a M-Score ([3]; Example 13.1: patient, T3N0M0, primary) of 64 and a M-Score ([3]; Example 13.2: patient, T3/4N2cM0, metastatic lymph node) of 39.

`CC(=O)O[C@@]12CO[C@@H]1C[C@H](O)[C@@]1(C)C(=O)[C@H](O)C3=C(C)[C@@H](OC(=O)[C@H](O)[C@@H](NC(=O)OC(C)(C)C)c4ccccc4)C[C@@](O)([C@@H](OC(=O)c4ccccc4)[C@H]21)C3(C)C` [Docetaxel] gave a M-Score ([4]; Example 13.10: patient, primary) of 19, a M-Score ([4]; Example 13.9: patient, metastasis) of 26 and a M-Score [2, 10] of 26.

`Cn1nnc2c(C(N)=O)ncn2c1=O` [Temozolomide] was tested, and the “Clinical readout RECIST” value ([5]; Glioblastoma patient) was 2 and the “Sensitivity Index” value [6] was 49.

In the case of Panitumumab, the M-Score ([7]; Example 13.3: patient, Colon Cancer, rectosigmoid colon, Stage IV, metastasis) is reported as 19 and the M-Score ([7]; Example 13.4: patient, Colon Cancer, perineal mass (Ca-Rectum), T3N0M0, Recc) is reported as 27.

In the case of `CC(=O)O[C@H]1C(=O)[C@@]2(C)[C@H]([C@H](OC(=O)c3ccccc3)[C@]3(O)C[C@H](OC(=O)[C@H](O)[C@@H](NC(=O)c4ccccc4)c4ccccc4)C(C)=C1C3(C)C)[C@]1(OC(C)=O)CO[C@@H]1C[C@@H]2O` [Paclitaxel], the M-Score [2, 10] is reported as 11.

With `CCC1=C[C@@H]2CN(C1)Cc1c([nH]c3ccccc13)[C@@](C(=O)OC)(c1cc3c(cc1OC)N(C)[C@H]1[C@@](O)(C(=O)OC)[C@H](OC(C)=O)[C@]4(CC)C=CCN5CC[C@]31[C@@H]54)C2` [Vinorelbine] the “Clinical readout RECIST” value ([5]; Ca-Breast patients) was 2 and the M-Score [2, 10] was 19.

`COc1cccc2c1C(=O)c1c(O)c3c(c(O)c1C2=O)C[C@@](O)(C(=O)CO)C[C@@H]3O[C@H]1C[C@H](N)[C@H](O)[C@H](C)O1` [Doxorubicin] showed a M-Score [2, 10] of 17.

Compound `CCCCCOC(=O)Nc1nc(=O)n([C@@H]2O[C@H](C)[C@@H](O)[C@H]2O)cc1F` [Capecitabine] has a M-Score [2, 10] of 26.

In the case of Avastin, the M-Score ([2]; Example 13.18: patient, Breast Cancer with mets, Regional lymph node (Rt Br), T3N1M1, recurrent) is reported as 18, the M-Score ([2]; Example 13.19: patient, Breast Cancer with SCLN mets, supraclaviculus lymph node, TXNXM2, metastatic) is reported as 14 and the M-Score ([7]; Example 13.15: patient, Colorectum Cancer, perineal mass, T3N0M0, recurrent) is reported as 20.

In the case of `Nc1ccn([C@@H]2O[C@H](CO)[C@@H](O)C2(F)F)c(=O)n1` [Gemcitabine], the M-Score [2, 10] is reported as 21.

`CCN(CC)CCNC(=O)c1c(C)[nH]c(/C=C2\C(=O)Nc3ccc(F)cc32)c1C` [Sunitinib] was tested, and the M-Score ([8]; Example 13.5: patient, pylorus of stomach, metastatic lymph node recc) was 25 and the M-Score ([8]; Example 13.6: patient, stomach, recc) was 09.

With `CNC(=O)c1cc(Oc2ccc(NC(=O)Nc3ccc(Cl)c(C(F)(F)F)c3)cc2)ccn1` [Sorafenib] the “"Clinical Response Predictor" analysis suggestion” value ([9]; Example 13.13: patient, T3NxM1, metastasis) was “not an optimal therapeutic option”, the M-Score ([9]; Example 13.13: patient, T3N×M1, metastasis) was 16 and the “"Clinical Response Predictor" analysis suggestion” value [9, 11] was “an optimal therapeutic option”. For the same compound, the M-Score [9, 11] was 46.
